Measurements: patent US20190177286A1, “CRYSTAL MODIFICATIONS OF ELOBIXIBAT” (Elobix AB, priority 2014, published 2019)
Values belong to the compound of their own block, whether it stands above or below them.

Assay: Dynamic Vapor Sorption (DVS), two sorption-desorption cycles 0-95-0% RH
Assay type: physicochemical
Conditions: for phase change from anhydrate to dihydrate, significant change in moisture (sorption curves): DVS sorption cycles
Method: Approximately 2-16 mg of the sample was weighed into a metal receptacle, which was then released of static electricity. The metal receptacle was positioned in a Surface Measurements System Ltd DVS Advantage instrument. The sample was subjected to two consecutive sorption-desorption cycles, each running from 0-95-0% relative humidity (% RH). One cycle consisted of 21 steps, those between 0-90% RH were taken in 10% RH each. At each stage the following equilibrium criteria was used: dm/dt over 5 minutes <0,002% and the minimum and maximum time at each stage were 10 and 360 min respectively.

phase change from anhydrate to dihydrate, significant change in moisture (sorption curves) (listed as C): 60-70 % RH
SMILES: CCCCC1(CCCC)CN(c2ccccc2)c2cc(SC)c(OCC(=O)N[C@@H](C(=O)NCC(=O)O)c3ccccc3)cc2S(=O)(=O)C1 [crystal modification C, N-{(2R)-2-[({[3,3-dibutyl-7-(methylthio)-1,1-dioxido-5-phenyl-2,3,4,5-tetrahydro-1,5-benzothiazepin-8-yl]oxy}acetyl)amino]-2-phenylethanolyl}-glycine]

moisture uptake (DVS isotherm) (weight % water versus % RH, two consecutive DVS cycles, FIG. 10): linear function of % RH
SMILES: CCCCC1(CCCC)CN(c2ccccc2)c2cc(SC)c(OCC(=O)N[C@@H](C(=O)NCC(=O)O)c3ccccc3)cc2S(=O)(=O)C1 [crystal modification F, N-{(2R)-2-[({[3,3-dibutyl-7-(methylthio)-1,1-dioxido-5-phenyl-2,3,4,5-tetrahydro-1,5-benzothiazepin-8-yl]oxy}acetyl)amino]-2-phenylethanolyl}-glycine]

phase change from anhydrate to dihydrate, significant change in moisture (sorption curves) (listed as L): 40-50 % RH
SMILES: CCCCC1(CCCC)CN(c2ccccc2)c2cc(SC)c(OCC(=O)N[C@@H](C(=O)NCC(=O)O)c3ccccc3)cc2S(=O)(=O)C1 [crystal modification L, N-{(2R)-2-[({[3,3-dibutyl-7-(methylthio)-1,1-dioxido-5-phenyl-2,3,4,5-tetrahydro-1,5-benzothiazepin-8-yl]oxy}acetyl)amino]-2-phenylethanolyl}-glycine]

SMILES: CCCCC1(CCCC)CN(c2ccccc2)c2cc(SC)c(OCC(=O)N[C@@H](C(=O)NCC(=O)O)c3ccccc3)cc2S(=O)(=O)C1 [crystal modification N, N-{(2R)-2-[({[3,3-dibutyl-7-(methylthio)-1,1-dioxido-5-phenyl-2,3,4,5-tetrahydro-1,5-benzothiazepin-8-yl]oxy}acetyl)amino]-2-phenylethanolyl}-glycine]
moisture amount where the four DVS curves coincide (dihydrate) (DVS, sorption and desorption curves of two cycles): around 5 % w/w
